Measurements from patent US9809584B1, “Sulfur-containing oxazine compound and synthesis method thereof” (National Tsing Hua University, priority 2016, dated 2017).

Legend:
[1] = test system: staphylococcus ATTC6341(Sa); test: Antibacterial activity, zone of inhibition, penicillin sensitive Sa strain; type: cell-based
Method: (§1) Next, the antibacterial activity of the prepared sulfur-containing BPA-FBz compounds is evaluated using two strains of staphylococcus ATTC6341(Sa) and ATTC11632(Sr), and the results are shown in Table 2. In particular, the Sa strain and the Sr strain have different sensitivities to antibiotics. The Sa strain is penicillin sensitive, and the Sr strain is penicillin resistant, and ampicillin is used as positive control. It can be known from Table 2 that, none of BPA-FBz and sulfur-containing BPA-FBz compounds having low sulfur content (i.e., compounds 1 and 2) has antibacterial activity.

[2] = test system: staphylococcus ATTC11632(Sr); test: Antibacterial activity, zone of inhibition, penicillin resistant Sr strain; type: cell-based
Method: as §1

[3] = dash = no antibacterial activity

| Structure (SMILES) | Zone of inhibition [1, 3] | Zone of inhibition [2, 3] | antibacterial activity (in words) [1] | antibacterial activity (in words) [2] |
| --- | --- | --- | --- | --- |
| CC1(C)S[C@@H]2[C@H](NC(=O)[C@H](N)c3ccccc3)C(=O)N2[C@H]1C(=O)O [Ampicillin, ampicillin] | 34.0 mm | 9.0 mm | – | – |
| CC(C)(c1ccc2c(c1)CN(Cc1ccco1)CO2)c1ccc2c(c1)CN(Cc1ccco1)CO2 [BPA-FBz, bis(3-furfuryl-3,4-dihydro-2H-1,3-benzoxazinyl)isopropane] | – | – | none | none |
